In patent publication US11793774B2, “Chiral beta-hydroxyethylamines and their use in the treatment of hyperglycemia” (ATROGI AB, priority 2017, dated 2023):

Assays:
L6-myotubes = assay: Glucose uptake (3H-2-deoxy-glucose) in differentiated L6-myotubes; assay type: cell-based; conditions: agonist final concentration 1×10^−5, 3H-2-deoxy-glucose uptake, relative to isoproterenol
Method: L6-myoblasts were grown in Dulbecco's Modified Eagle's Medium (DMEM) containing 4.5 g/l glucose supplemented with 10% fetal bovine serum, 2 mM L-Glutamine, 50 U/ml penicillin, 50 μg/ml streptomycin and 10 mM HEPES. Cells were plated at 1×10^5 cells per ml in 24-well plates. After reaching 90% confluence the cells were grown in medium containing 2% FBS for 7 days where upon cells differentiated into myotubes. Differentiated L6-myotubes were serum-starved over night in medium containing 0.5% fatty-acid free BSA and stimulated with agonist, final concentration 1×10^−5. After 1 h 40 min cells were washed with warm, glucose free medium or PBS and another portion of agonist was added to glucose free medium. After 20 min the cells were exposed to 50 nM ^3H-2-deoxy-glucose for another 10 min before washed in ice cold glucose free medium or PBS and lysed in 0.2 M NaOH for 1 h in 60° C.

[1] = system: Intracellular cAMP levels; assay: Measurement of intracellular cAMP levels in differentiated cells (alpha screen cAMP kit); assay type: cell-based; conditions: agonist final concentration 1×10^−5, 15 min, 1 mM IBMX, relative to isoproterenol
Method: L6-myoblasts were grown in Dulbecco's Modified Eagle's Medium (DMEM) containing 4.5 g/l glucose supplemented with 10% fetal bovine serum, 2 mM L-Glutamine, 50 U/ml penicillin, 50 μg/ml streptomycin and 10 mM HEPES. Cells were plated at 1×10^5 cells per ml in 24-well plates. After reaching 90% confluence the cells were grown in medium containing 2% FBS for 7 days where upon cells differentiated into myotubes.
Differentiated cells were serum-starved over night and stimulated with agonist, final concentration 1×10^−5, for 15 min in stimulation buffer (HBSS supplemented with 1% BSA, 5 mM HEPES and 1 mM IBMX, pH 7.4) The medium was then aspirated and to end the reaction 100 μL of 95% EtOH was added to each well of a 24-well plate and cells were kept in −20° C. over night. The EtOH was let to evaporate and 500 μL of lysis buffer (1% BSA, 5 mM HEPES and 0.3% Tween-20, pH 7.4) was added to each well before put in −80° C. for 30 min and then kept in −20° C. Intracellular cAMP levels were detected using an alpha screen cAMP kit (6760635D from Perkin Elmer). The activity for each compound is compared to that of isoproterenol.

Row | Compound | Biological example 1: glucose uptake activity compared to that of isoproterenol (L6-myotubes) | Biological example 2: intracellular cAMP activity compared to that of isoproterenol [1]
1 | CCC[C@@H](C)NC[C@H](O)c1ccc(O)cc1 [Example 2, 4-((R)-1-Hydroxy-2-(((R)-pentan-2-yl)amino)ethyl)phenol Hemisulphate] | ++ (between 75 and 50%) | + (between 50 and 25%)
2 | CCC[C@@H](C)NC[C@H](O)c1cccc(O)c1 [Example 4, 3-((R)-1-Hydroxy-2-(((R)-pentan-2-yl)amino)ethyl)phenol Hemisulphate] | +++ (activity of more than 75% of that of isoproterenol) | ++ (between 75 and 50%)
3 | CCC[C@@H](C)NC[C@H](O)c1ccc(F)cc1 [Example 5, (R)-1-(4-Fluorophenyl)-2-(((R)-pentan-2-yl)amino)ethan-1-ol] | ++ (between 75 and 50%) | − (less than 25%)
4 | CCC[C@@H](C)NC[C@H](O)c1cccc(F)c1 [Example 6, (R)-1-(3-fluorophenyl)-2-(((R)-pentan-2-yl)amino)ethan-1-ol] | ++ (between 75 and 50%) | − (less than 25%)
